Measured values as given in ChEMBL document CHEMBL6103613 (J Med Chem, 2025).
Converted amounts (≈) assume the structure as drawn. The source made the active and inactive calls. The rule behind the calls is not given here.

Tests used:
[1] = system: Staphylococcus epidermidis; assay: Antimicrobial activity against Staphylococcus epidermidis ATCC 12228 assessed as inhibition of visible bacterial growth incubated for 18 hrs by CLSI based analysis; assay type: functional
Enterococcus faecalis = assay: Antimicrobial activity against Enterococcus faecalis ATCC 19433 assessed as inhibition of visible bacterial growth incubated for 18 hrs by CLSI based analysis; assay type: functional
Staphylococcus aureus [2] = assay: Antimicrobial activity against methicillin-resistant Staphylococcus aureus clinical isolate 4 assessed as inhibition of visible bacterial growth incubated for 18 hrs by CLSI based analysis; assay type: functional
Staphylococcus aureus [3] = assay: Antimicrobial activity against methicillin-resistant Staphylococcus aureus clinical isolate 2 assessed as inhibition of visible bacterial growth incubated for 18 hrs by CLSI based analysis; assay type: functional
Bacillus subtilis = assay: Antimicrobial activity against Bacillus subtilis ATCC 23875 assessed as inhibition of visible bacterial growth incubated for 18 hrs by CLSI based analysis; assay type: functional
Staphylococcus aureus [4] = assay: Antimicrobial activity against methicillin-resistant Staphylococcus aureus ATCC 43300 assessed as inhibition of visible bacterial growth incubated for 18 hrs by CLSI based analysis; assay type: functional
Enterococcus gallinarum = assay: Antimicrobial activity against Enterococcus gallinarum ATCC 49573 assessed as inhibition of visible bacterial growth incubated for 18 hrs by CLSI based analysis; assay type: functional
Staphylococcus aureus [5] = assay: Antimicrobial activity against methicillin-resistant Staphylococcus aureus clinical isolate 3 assessed as inhibition of visible bacterial growth incubated for 18 hrs by CLSI based analysis; assay type: functional
Enterococcus faecium = assay: Antimicrobial activity against vancomycin-resistant Enterococcus faecium assessed as inhibition of visible bacterial growth incubated for 18 hrs by CLSI based analysis; assay type: functional
Staphylococcus aureus [6] = assay: Antimicrobial activity against Staphylococcus aureus ATCC 25923 assessed as inhibition of visible bacterial growth incubated for 18 hrs by CLSI based analysis; assay type: functional
Candida albicans = assay: Antifungal activity against Candida albicans assessed as reduction in fungal growth incubated for 18 hrs by CLSI based analysis; assay type: functional
Escherichia coli = assay: Antimicrobial activity against Escherichia coli assessed as inhibition of visible bacterial growth incubated for 18 hrs by CLSI based analysis; assay type: functional
Staphylococcus aureus [7] = assay: Antimicrobial activity against Staphylococcus aureus assessed as inhibition of visible bacterial growth incubated for 18 hrs by CLSI based analysis; assay type: functional
Staphylococcus aureus [8] = assay: Antibacterial activity against methicillin-resistant Staphylococcus aureus infected in kunming mouse pneumonia model assessed as decrease in IL-6 expression in lung at 5 mg/kg, ip measured upto 8 days; assay type: functional, organism-based; details: time <= 8.0 day
Staphylococcus aureus [9] = assay: Antimicrobial activity against Staphylococcus aureus assessed as reduction in bacterial growth at 2 times MIC incubated for 24 hrs by time-killing assay; assay type: functional, organism-based
Staphylococcus aureus [10] = assay: Antibacterial activity against methicillin-resistant Staphylococcus aureus infected in kunming mouse pneumonia model assessed as decrease in TNF-alpha expression in lung at 5 mg/kg, ip measured upto 8 days; assay type: functional, organism-based; details: time <= 8.0 day
Staphylococcus aureus [11] = assay: Antibacterial activity against methicillin-resistant Staphylococcus aureus infected in kunming mouse pneumonia model assessed as decrease in IL-10 expression in lung at 5 mg/kg, ip measured upto 8 days; assay type: functional, organism-based; details: time <= 8.0 day
[12] = Hemolytic activity against mouse Red blood cell incubated for 1 hr; assay type: toxicity, cell-based; details: erythrocyte
[13] = Therapeutic index, ratio of HC5 for hemolytic activity in mouse Red blood cell to MIC for antimicrobial activity against Staphylococcus aureus ATCC 25923 assessed as inhibition of visible bacterial growth; assay type: toxicity, cell-based, RBC; details: red blood cells, read-out: TI

Row | Structure (SMILES) | MIC [1] [µg/mL] | MIC (Enterococcus faecalis) [µg/mL] | MIC (Staphylococcus aureus [2]) [µg/mL] | MIC (Staphylococcus aureus [3]) [µg/mL] | MIC (Bacillus subtilis) [µg/mL] | MIC (Staphylococcus aureus [4]) [µg/mL] | MIC (Enterococcus gallinarum) [µg/mL] | MIC (Staphylococcus aureus [5]) [µg/mL] | MIC (Enterococcus faecium) [µg/mL] | MIC (Staphylococcus aureus [6]) [µg/mL] | MIC (Candida albicans) [µg/mL] | MIC (Escherichia coli) [µg/mL] | MIC (Staphylococcus aureus [7]) [µg/mL] | Activity (Staphylococcus aureus [8]) | Activity (Staphylococcus aureus [9]) | Activity (Staphylococcus aureus [10]) | Activity (Staphylococcus aureus [11]) | HC5 [12] [µg/mL] | selectivity ratio [13]
1 | CC(C)C[C@H]1NC(=O)[C@H](Cc2c[nH]c3ccccc23)NC(=O)[C@@H](C(C)C)NC(=O)[C@@H]2CSC(N2)[C@H](C(C)C)NC(=O)[C@@H](CCCCN)NC(=O)[C@H](C(C)C)NC1=O | > 50 | > 50 | > 50 | > 50 | > 50 | > 50 | > 50 | > 50 | > 50 | > 50 | – | – | – | – | – | – | – | – | –
2 | C#CC[C@H]1NC(=O)[C@@H]2CSC(N2)[C@H](C(C)C)NC(=O)[C@@H](C(C)C)NC(=O)[C@H](C(C)C)NC(=O)[C@@H](CCCCN)NC(=O)[C@H](Cc2c(C(c3ccccc3)(c3ccccc3)c3ccccc3)[nH]c3ccccc23)NC1=O | 6.25 (≈ 6.03 µM) | 25 (≈ 24.1 µM) | 6.25 (≈ 6.03 µM) | 6.25 (≈ 6.03 µM) | 6.25 (≈ 6.03 µM) | 6.25 (≈ 6.03 µM) | 12.5 (≈ 12.1 µM) | 12.5 (≈ 12.1 µM) | 25 (≈ 24.1 µM) | 6.25 (≈ 6.03 µM) | 3.13 (≈ 3.02 µM) | 3.13 (≈ 3.02 µM) | 3.13 (≈ 3.02 µM) | – | – | – | – | – | –
3 | CN[C@H](CC(C)C)C(=O)N[C@H]1C(=O)N[C@@H](CC(N)=O)C(=O)N[C@H]2C(=O)N[C@H]3C(=O)N[C@H](C(=O)N[C@H](C(=O)O)c4cc(O)cc(O)c4-c4cc3ccc4O)[C@H](O)c3ccc(c(Cl)c3)Oc3cc2cc(c3O[C@@H]2O[C@H](CO)[C@@H](O)[C@H](O)[C@H]2O[C@H]2C[C@](C)(N)[C@H](O)[C@H](C)O2)Oc2ccc(cc2Cl)[C@H]1O [VANCOMYCIN] | 0.39 (≈ 0.269 µM) | 0.39 (≈ 0.269 µM) | 1.56 (≈ 1.08 µM) | 3.13 (≈ 2.16 µM) | 0.39 (≈ 0.269 µM) | 0.78 (≈ 0.538 µM) | 3.13 (≈ 2.16 µM) | 0.78 (≈ 0.538 µM) | 25 (≈ 17.3 µM) | 0.78 (≈ 0.538 µM) | – | – | – | Active | inactive | Active | Active | – | –
4 | CC(C)C[C@H]1NC(=O)[C@H](Cc2c(C(c3ccccc3)c3ccccc3)[nH]c3ccccc23)NC(=O)[C@@H](C(C)C)NC(=O)[C@@H]2CSC(N2)[C@H](C(C)C)NC(=O)[C@@H](C(C)C)NC(=O)[C@H](CCCCN)NC1=O | 25 (≈ 25.6 µM) | 50 (≈ 51.1 µM) | 12.5 (≈ 12.8 µM) | 25 (≈ 25.6 µM) | 12.5 (≈ 12.8 µM) | 25 (≈ 25.6 µM) | 50 (≈ 51.1 µM) | 25 (≈ 25.6 µM) | 50 (≈ 51.1 µM) | 25 (≈ 25.6 µM) | 3.13 (≈ 3.2 µM) | 3.13 (≈ 3.2 µM) | 3.13 (≈ 3.2 µM) | – | – | – | – | 64.74 | 2.59
5 | CC(C)C[C@H]1NC(=O)[C@H](Cc2c(C(c3ccccc3)(c3ccccc3)c3ccccc3)[nH]c3ccccc23)NC(=O)[C@@H](CCCCN)NC(=O)[C@@H]2CSC(N2)[C@H](C(C)C)NC(=O)[C@@H](C(C)C)NC(=O)[C@H](C(C)C)NC1=O | 12.5 (≈ 11.9 µM) | 12.5 (≈ 11.9 µM) | 12.5 (≈ 11.9 µM) | 12.5 (≈ 11.9 µM) | 6.25 (≈ 5.93 µM) | 12.5 (≈ 11.9 µM) | 12.5 (≈ 11.9 µM) | 25 (≈ 23.7 µM) | 25 (≈ 23.7 µM) | 6.25 (≈ 5.93 µM) | 3.13 (≈ 2.97 µM) | 3.13 (≈ 2.97 µM) | 3.13 (≈ 2.97 µM) | – | – | – | – | 46.47 | 7.44
6 | CC(C)C[C@H]1NC(=O)[C@H](Cc2c(C(c3ccccc3)c3ccccc3)[nH]c3ccccc23)NC(=O)[C@@H](C(C)C)NC(=O)[C@@H]2CSC(N2)[C@H](C(C)C)NC(=O)[C@@H](C(C)C)NC(=O)[C@H](C(C)C)NC1=O | > 50 | > 50 | > 50 | > 50 | > 50 | > 50 | > 50 | > 50 | > 50 | > 50 | – | – | – | – | – | – | – | – | –
